The source of these data is patent US20190016689A1, “NOVEL FLUORINATED QUINAZOLINE DERIVATIVES AS EGFR INHIBITORS” (TRILLIUM THERAPEUTICS INC., priority 2016, published 2019).

Series [1] is described as follows: Log P determination (HPLC with reference substances). The class given is physicochemical. To be noted: HPLC retention against reference substances of known log P. As to the method:
Prepare thiourea in acetonitrile and ultrapure water mixture (1:1 in v:v) as unretained organic substance sample. Prepare acetanilide, methyl benzoate, benzophenone, benzyl benzoate, fluoranthene and DDT in acetonitrile and ultrapure water mixture (1:1 in v:v) as reference substances mixture.
Prepare the stock solutions of test compounds and control compound progesterone in acetonitrile at the concentration of 2 mM. Dilute one volume of the stock solution with one volume of ultrapure water. If not soluble, filtrate the sample using a 0.45 μm nylon membrane.
Prepare acidic or basic mobile phase according to the character of test compounds. Run a blank sample (ultrapure water mixture (1:1 in v:v)), followed by unretained organic substance sample and reference substances mixture. Then run the test compounds and control compound in singlet, and at the end of the batch rerun the reference substances mixture.

Series [2] can be described thus: Log D determination (1-octanol/buffer). Type of series: physicochemical. How it is done:
Prepare the stock solutions of test compounds and control compound progesterone in DMSO at the concentration of 30 mM. If test compound could not be dissolved completely, make a 10 mM stock solution with DMSO.
Place 5 μL of stock solution (30 mM) or 15 μL of stock solution (10 mM) of each sample in order into their proper 96-well rack. […] Add one stir stick to each vial and seal using a molded PTFE/Silicone plug. […] After completion of incubation, remove the stir sticks using a big magnet. Then centrifuge the samples at 25° C. at 20,000 g for 20 minutes to separate the phases, and use pipette and syringe to remove the upper (1-octanol) and lower (buffer) phases to the empty tubes, respectively. Take aliquots of 5 μL from upper phases followed by addition of 495 μL of methanol. Vortex for 1 minute, and then take aliquots of 50 μL from the diluent followed by addition of 450 μL of methanol. And take aliquots of 50 μL from lower phases followed by addition of 450 μL of methanol. A certain proportion of ultrapure water may be used according to the peak shape. The dilution factor may be changed according to the Log D value and the LC/MS signal response.

Series [3] concerns EKVX. Nature of the series: NCI screening panel (SRB). Type of series: cell-based. To be noted: Homo sapiens, EKVX (NSCLC), 48 h; for CC50: read-out: LC50 (the source's name).
Series [4] has as its system K-562. Briefly: NCI screening panel (SRB). Type of series: cell-based. To be noted: Homo sapiens, K562, K-562 (Leukemia), 48 h; for CC50: read-out: LC50 (the source's name).
Series [5] deals with SNB-19. Briefly: NCI screening panel (SRB). Type of series: cell-based. The conditions noted are these: Homo sapiens, SNB-19 (CNS), 48 h; for CC50: read-out: LC50 (the source's name).
Series [6] concerns SNB-75. Briefly: NCI screening panel (SRB). To be noted: Homo sapiens, SNB-75 (CNS), 48 h; for CC50: read-out: LC50 (the source's name). The class given is cell-based.
Series [7] concerns RXF393. Briefly: NCI screening panel (SRB). Type of series: cell-based. To be noted: Homo sapiens, RXF 393, RXF393 (Renal), 48 h; for CC50: read-out: LC50 (the source's name).
The test system of series [8] is NCI-H460. Briefly: NCI screening panel (SRB). Type of series: cell-based. To be noted: Homo sapiens, NCI-H460 (NSCLC), 48 h; for CC50: read-out: LC50 (the source's name).
The subject of series [9] is 786-0. Nature of the series: NCI screening panel (SRB). The class given is cell-based. The conditions noted are these: Homo sapiens, 786-0 (Renal), 48 h; for CC50: read-out: LC50 (the source's name).
Series [10] has as its system SF-539. Briefly: NCI screening panel (SRB). Type of series: cell-based. The conditions noted are these: Homo sapiens, SF-539 (CNS), 48 h; for CC50: read-out: LC50 (the source's name).
Series [11] has as its system OVCAR-5. Briefly: NCI screening panel (SRB). Type of series: cell-based. To be noted: Homo sapiens, OVCAR-5 (Ovarian), 48 h; for CC50: read-out: LC50 (the source's name).
Series [12] has as its system SK-OV-3. Briefly: NCI screening panel (SRB). Type of series: cell-based. To be noted: Homo sapiens, SK-OV-3 (Ovarian), 48 h; for CC50: read-out: LC50 (the source's name).
In series [13] the test system is ACHN. Briefly: NCI screening panel (SRB). Type of series: cell-based. To be noted: Homo sapiens, ACHN (Renal), 48 h; for CC50: read-out: LC50 (the source's name).
The test system of series [14] is SF-295. Nature of the series: NCI screening panel (SRB). Type of series: cell-based. To be noted: Homo sapiens, SF-295 (CNS), 48 h; for CC50: read-out: LC50 (the source's name).
Series [15] relates to HOP-62. Briefly: NCI screening panel (SRB). The class given is cell-based. The conditions noted are these: Homo sapiens, HOP-62 (NSCLC), 48 h; for CC50: read-out: LC50 (the source's name).
The test system of series [16] is OVCAR-3. Nature of the series: NCI screening panel (SRB). To be noted: Homo sapiens, OVCAR-3, 48 h; for CC50: read-out: LC50.
Series [17] deals with MDA-MB-468. Nature of the series: NCI screening panel (SRB). To be noted: Homo sapiens, MDA-MB-468, 48 h; for CC50: read-out: LC50.
For series [18], the system named is DU-145. Nature of the series: NCI screening panel (SRB). Type of series: cell-based. The conditions noted are these: Homo sapiens, DU-145 (Prostate), 48 h; for CC50: read-out: LC50 (the source's name).
The test system of series [19] is EGFR (L747-T751del, Sins). Nature of the series: Kinase assays, selectivity panel (qPCR). In general terms: Real-time PCR tracks product formation cycle by cycle.
The target in series [20] is EGFR (L858R, T790M) (Homo sapiens, UniProt P00533, L858R/T790M). Briefly: Kinase assays, selectivity panel (qPCR). The conditions noted are these: read-out: % Control @ 300 nM.
EGFR (L858R, T790M), sequence (P00533 25-1210 T790M/L858R): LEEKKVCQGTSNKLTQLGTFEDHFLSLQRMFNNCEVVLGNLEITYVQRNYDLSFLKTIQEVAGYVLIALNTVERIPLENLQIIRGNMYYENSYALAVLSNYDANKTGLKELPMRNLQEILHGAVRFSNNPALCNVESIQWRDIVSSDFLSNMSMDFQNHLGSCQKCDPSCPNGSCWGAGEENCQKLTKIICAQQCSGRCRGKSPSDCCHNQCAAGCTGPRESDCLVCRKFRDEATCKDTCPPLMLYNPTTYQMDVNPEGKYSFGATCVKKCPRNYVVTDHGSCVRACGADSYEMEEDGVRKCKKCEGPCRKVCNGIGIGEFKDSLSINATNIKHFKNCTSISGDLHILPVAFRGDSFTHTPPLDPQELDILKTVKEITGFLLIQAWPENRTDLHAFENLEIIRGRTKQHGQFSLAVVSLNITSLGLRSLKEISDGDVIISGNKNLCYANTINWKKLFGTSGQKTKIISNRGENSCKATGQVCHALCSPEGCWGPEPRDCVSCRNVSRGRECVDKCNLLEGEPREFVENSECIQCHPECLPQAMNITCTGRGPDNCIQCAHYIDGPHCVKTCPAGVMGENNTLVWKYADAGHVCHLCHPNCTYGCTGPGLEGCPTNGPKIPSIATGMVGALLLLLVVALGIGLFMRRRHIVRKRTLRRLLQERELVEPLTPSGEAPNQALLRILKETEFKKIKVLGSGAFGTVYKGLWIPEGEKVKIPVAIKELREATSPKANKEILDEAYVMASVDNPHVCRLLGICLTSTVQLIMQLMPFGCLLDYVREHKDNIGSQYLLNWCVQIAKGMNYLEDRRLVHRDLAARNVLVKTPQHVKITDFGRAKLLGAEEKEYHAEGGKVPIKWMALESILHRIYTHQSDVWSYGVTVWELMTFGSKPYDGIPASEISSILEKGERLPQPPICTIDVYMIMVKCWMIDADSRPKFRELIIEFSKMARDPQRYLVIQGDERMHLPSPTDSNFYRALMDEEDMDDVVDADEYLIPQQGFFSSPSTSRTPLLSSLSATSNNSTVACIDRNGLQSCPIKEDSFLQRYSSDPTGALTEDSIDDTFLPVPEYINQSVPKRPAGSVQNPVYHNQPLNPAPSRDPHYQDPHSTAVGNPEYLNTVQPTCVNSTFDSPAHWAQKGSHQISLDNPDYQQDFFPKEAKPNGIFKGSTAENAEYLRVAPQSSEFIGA
Series [21] deals with MDA-MB-231/ATCC. Briefly: NCI screening panel (SRB). Type of series: cell-based. To be noted: Homo sapiens, MDA-MB-231/ATCC (Breast), 48 h; for CC50: read-out: LC50 (the source's name).
In series [22] the target is SRC (Homo sapiens, UniProt P12931). Nature of the series: Kinase assays, selectivity panel (qPCR). The conditions noted are these: read-out: % Control @ 300 nM.
SRC, sequence (P12931 whole entry): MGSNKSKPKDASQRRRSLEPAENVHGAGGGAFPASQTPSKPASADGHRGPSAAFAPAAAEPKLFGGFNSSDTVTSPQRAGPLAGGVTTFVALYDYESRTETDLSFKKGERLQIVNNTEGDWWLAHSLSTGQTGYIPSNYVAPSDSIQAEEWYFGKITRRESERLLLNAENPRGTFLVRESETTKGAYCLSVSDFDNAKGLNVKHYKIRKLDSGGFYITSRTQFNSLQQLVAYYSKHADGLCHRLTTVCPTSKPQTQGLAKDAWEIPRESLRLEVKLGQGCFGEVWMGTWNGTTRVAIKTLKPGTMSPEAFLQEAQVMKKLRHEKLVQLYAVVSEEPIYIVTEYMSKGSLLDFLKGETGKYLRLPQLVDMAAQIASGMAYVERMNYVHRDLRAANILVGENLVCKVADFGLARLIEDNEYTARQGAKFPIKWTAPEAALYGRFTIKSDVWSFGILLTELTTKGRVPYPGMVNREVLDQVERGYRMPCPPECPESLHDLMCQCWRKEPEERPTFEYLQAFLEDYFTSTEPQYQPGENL
Series [23] deals with CAKI-1. Nature of the series: NCI screening panel (SRB). Type of series: cell-based. The conditions noted are these: Homo sapiens, CAKI-1 (Renal), 48 h; for CC50: read-out: LC50 (the source's name).
For series [24], the system named is HCC-2998. Briefly: NCI screening panel (SRB). Type of series: cell-based. To be noted: Homo sapiens, HCC-2998 (Colon), 48 h; for CC50: read-out: LC50 (the source's name).

The chromatographic logP is a lipophilicity value derived from retention on a column. By logD is commonly meant the decadic logarithm of the distribution of all forms, ionised or not, between an organic phase and buffer at a given pH. Higher therefore signals higher lipophilicity. As a reminder, the GI50 is the concentration giving 50% growth inhibition. A lower GI50 goes with greater sensitivity of the cells.

As for `CN(C)C/C=C/C(=O)Nc1cc2c(Nc3ccc(F)c(Cl)c3)ncnc2cc1O[C@H]1CCOC1` [Afatinib, reference compound], the chromatographic logP in series [1] worked out at 4.26. Moreover, the pH-dependent lipophilicity (logD) in series [2] (pH 2.0) was -2.46; in [2] (pH 7.4), 3.18.

For the compound `CN(C)C/C=C/C(=O)Nc1cc2c(Nc3cccc(Cl)c3F)ncnc2cc1OCCOC(F)F.O=C(O)/C=C\C(=O)O` [Example I-5-MA, (E)-N-[4-(3-chloro-2-fluoro-anilino)-7-[2-(difluoromethoxy)ethoxy]quinazolin-6-yl]-4-(dimethylamino)but-2-enamide dimaleic acid salt], the chromatographic logP in [1] turned out to be 3.57. The logD was -2.17 in [2] (pH 2.0) and 3.2 in series [2] (pH 7.4).

For the compound `CN(C)C/C=C/C(=O)Nc1cc2c(Nc3ccc(F)c(Cl)c3F)ncnc2cc1OCCOC(F)F.O=C(O)/C=C\C(=O)O.O=C(O)/C=C\C(=O)O` [Example I-9-MA, (E)-N-[4-(3-chloro-2,4-difluoro-anilino)-7-[2-(difluoromethoxy)ethoxy]quinazolin-6-yl]-4-(dimethylamino)but-2-enamide di-maleic acid salt], the GI50 is less than 0.01 µM in series [3]; 0.459 µM in series [4]; 1.6 µM in series [5]; 0.129 µM in [6]; 0.351 µM in [7]; 2.56 µM in series [8]. Moreover, the concentration for 50% growth inhibition (GI50) was 0.248 µM in series [9]; 1.06 µM in [10]; 0.141 µM in series [11]; less than 0.01 µM in [12]; less than 0.01 µM in [13]; 2.05 µM in series [14]. The 50% growth inhibitory concentration (GI50) in series [15] is 1.35 µM; in series [16] it was 0.0811 µM; in [17], less than 0.01 µM; in series [18], 0.14 µM; in series [21] it was 0.391 µM; in series [23], less than 0.01 µM. In series [24], the GI50 worked out at 1.14 µM. The CC50 in series [3] is 19.6 µM; in series [4], 61.9 µM; in [5] it was 36.6 µM; in [6], 23.6 µM; in series [7], 15.1 µM; in series [8], 62 µM. The CC50 is 26.6 µM in [9]; 9.52 µM in series [10]; 47.9 µM in series [11]; 27.7 µM in series [12]; 6.01 µM in series [13]; 33 µM in series [14]. Besides, the CC50 in series [15] came to 41.5 µM; in series [16], 7.44 µM; in series [17], 0.701 µM; in [18] it was 20.8 µM; in series [21], 28.8 µM; in [23], 3.76 µM. Moreover, the CC50 in [24] worked out at 5.67 µM. Besides, the “% Control @ 300 nM” value in series [19] is 8.6%. Further, the remaining activity at 0.3 µM in series [20] and in series [22] was 3.5% in each case.

As to `O=C(/C=C/CN1CCCCC1)Nc1cc2c(Nc3ccc(F)c(Cl)c3F)ncnc2cc1OCCOC(F)F.O=C(O)/C=C\C(=O)O.O=C(O)/C=C\C(=O)O` [Example I-10-MA, (E)-N-[4-(3-chloro-2,4-difluoro-anilino)-7-[2-(difluoromethoxy)ethoxy]quinazolin-6-yl]-4-(1-piperidyl)but-2-enamide di-maleic acid salt], the GI50 in [3] is 0.0347 µM; in [4], 1.03 µM; in series [5], 2.16 µM; in series [6], 0.274 µM; in [7], 0.959 µM; in series [8], 2.34 µM. For the same compound, the GI50 was 0.929 µM in [9]; 1.5 µM in [10]; 0.776 µM in [11]; 0.0405 µM in series [12]; less than 0.01 µM in [13]; 1.91 µM in [14]. For the same compound, the 50% growth inhibitory concentration (GI50) in [15] was 1.62 µM; in series [16], 0.39 µM; in [17] it was less than 0.01 µM; in series [18], 0.266 µM; in series [21], 1.15 µM; in series [23], 0.0229 µM. Moreover, the GI50 in [24] came to 1.8 µM. For the same compound, the CC50 in series [3] was 23.9 µM; in [4], more than 100 µM; in [5] it was 68.8 µM; in [6], 31 µM; in series [7], 33.3 µM; in series [8], 54.4 µM. The CC50 in series [9] was more than 100 µM; in [10], 14.3 µM; in series [11], 67.1 µM; in series [12] it was 36 µM; in series [13], 15 µM; in series [14], 16 µM. Moreover, the CC50 in series [15] was 39.5 µM; in series [16], 16.8 µM; in series [17], 6.93 µM; in [18], 37.8 µM; in [21], 17.6 µM; in series [23], 6.53 µM. Further, in series [24], the CC50 amounted to 7.85 µM. The “% Control @ 300 nM” value in series [19] was found to be 0%. The remaining activity at 0.3 µM amounted to 2.4% in [20] and 4.8% in [22].
